According to patent US12582688B2, “Compositions for the treatment of hypopigmentation” (University of Pretoria, priority 2021, dated 2026):
Where no end group is shown, it is not given here.

Tests used:
[1] = tested on: B16-F10 mouse melanocytes; test: Melanin production (intracellular and extracellular) in B16-F10 mouse melanocytes; type: cell-based; conditions: B16F10 cells, 72 hours; A. linearis at 500 μg/ml (highest concentration tested)
Description: Cultured B16F10 mouse melanocytes (passage number 6) were trypsinized (0.25% trypsin and 0.1% EDTA at 37° C. for 5-10 min). Cells (2×10^4 cells/well in 1.9 ml of MEM) were inoculated into 24-well plates using a pipette (FALCON 353046, Becton Dickinson Labware, NJ, U.S.A.), and incubated for 24 hours at 37° C. in the CO2 incubator. After 24-hour incubation, 100 μl of each sample solution was added to each well in duplicate, and the 24-well plate was incubated for 72 hours at 37° C. in the CO2 incubator. […] A 0.5% DMSO concentration was used as a negative control. After incubation, the cultured medium was removed, and assayed for extracellular melanin. The cultured medium was centrifuged (900 g, 20 min at 4° C.) to give a supernatant. One millilitre of a mixture of 0.4 M HEPES buffer (pH 6.8) and EtOH (9:1, v/v) was added to 1 ml of the supernatant was separated. The OD at 475 nm of the resulting solution was measured, and the amount of extracellular melanin was determined. The remaining melanocytes were digested by the addition of […] of CMF-D-PBS and trypsinized (0.25% trypsin and 0.1% EDTA at 37° C. for 5 to 10 min), and then incubated for 16 hours at room temperature. Spectrophotometric analysis of the amount of intracellular melanin was then performed at 475 nm.

[2] = tested on: Primary human melanocytes and primary human keratinocytes; test: Melanin transfer in melanocyte/keratinocyte co-culture, immunofluorescence; type: cell-based; conditions: NHM/NHK co-culture, 24 hours
Description: Primary human melanocytes and primary human keratinocytes were cultured in normal Dulbecco's Modified Eagle's Medium (DMEM) containing melanocyte and keratinocyte growth factors respectively. Melanocytes (2.5×10^3 cells/well) were seeded on gelatine treated round coverslips in 24 well plates and were incubated at 37° C. for 72 hours. After the 72 hours the melanocyte medium was removed and medium (with a higher Ca concentration and keratinocyte growth factors) containing the keratinocytes (25×10^3 cells/well) was added to each well. The co-culture was incubated overnight to ensure that the keratinocytes attached. […] After 24 hours the treated cells and untreated cells were analysed with immunofluorescence ([…], et al., 2008). The 24-hour co-cultured cells were washed with PBS and fixed with MeOH (added at a temperature of -20° C.) and incubated for 4 minutes at -20° C. The fixed cells were washed with PBS to remove all the MeOH and incubated for 1 hour at room temperature with goat serum (0.5% in PBS) to remove effects of background noise. […] The washed coverslips were transferred to microscope slides containing mounting media and stored covered at 4° C., until analysed using the fluorescent microscope. The statistical significance in the melanin transfer results obtained for the different treatments, was determined with a student's T-test. […]

Cn1c(=O)c2[nH]cnc2n(C)c1=O [theophylline]
additional melanin extracellularly [1]: 19 µg/mL
additional melanin intracellularly [1]: 21 µg/mL
additional melanin produced than in the untreated cells (total) [1]: 40 µg/mL

alpha melanocyte stimulating hormone (SYSMEHFRWGKPV; ends and bridges not checked; UniProt P01189 138-150, looked up) [α-MSH, positive control for melanin transfer]
melanocyte dendricity and melanosomes in the dendrite tips [2]: increase in the fluorescence in the tip of the dendrites
melanosomes around the keratinocyte nuclei (positive keratinocytes) ([2]; versus untreated cells): higher presence of melanosomes around the keratinocyte nuclei
